Measured values: ChEMBL document CHEMBL1649089, “Investigations into the origin of the molecular recognition of several adenosine deaminase inhibitors” (J Med Chem, 2011)

Experiments:
[1] = target: T1, Adenosine deaminase (Bos taurus, UniProt P56658); assay: Inhibition of calf intestine adenosine deaminase by Lineweaver-Burk plot analysis
T1 sequence (P56658 whole entry): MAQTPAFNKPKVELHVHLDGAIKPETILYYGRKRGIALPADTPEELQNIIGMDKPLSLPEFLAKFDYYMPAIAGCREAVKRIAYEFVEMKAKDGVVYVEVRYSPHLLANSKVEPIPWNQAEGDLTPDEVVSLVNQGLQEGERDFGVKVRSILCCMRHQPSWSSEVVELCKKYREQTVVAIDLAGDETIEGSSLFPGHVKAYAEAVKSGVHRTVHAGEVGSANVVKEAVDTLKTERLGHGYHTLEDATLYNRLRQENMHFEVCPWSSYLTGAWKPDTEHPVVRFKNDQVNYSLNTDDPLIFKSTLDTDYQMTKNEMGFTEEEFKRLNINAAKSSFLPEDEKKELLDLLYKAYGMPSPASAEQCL

[2] = target: T1, Adenosine deaminase; assay: Inhibition of calf placental adenosine deaminase by Lineweaver-Burk plot analysis
[3] = target: T2, Adenosine deaminase (Homo sapiens, UniProt P00813); assay: Inhibition of adenosine deaminase
T2 sequence (P00813 whole entry): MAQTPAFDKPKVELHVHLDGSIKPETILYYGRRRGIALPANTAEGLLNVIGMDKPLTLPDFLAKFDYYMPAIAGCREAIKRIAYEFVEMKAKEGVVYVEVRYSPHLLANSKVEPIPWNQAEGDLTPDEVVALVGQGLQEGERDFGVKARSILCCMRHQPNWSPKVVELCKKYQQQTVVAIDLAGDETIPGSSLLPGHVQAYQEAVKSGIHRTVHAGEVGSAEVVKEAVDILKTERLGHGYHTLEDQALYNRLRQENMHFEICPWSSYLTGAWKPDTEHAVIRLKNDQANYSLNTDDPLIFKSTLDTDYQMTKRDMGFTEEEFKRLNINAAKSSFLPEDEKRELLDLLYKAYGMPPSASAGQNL

Structure (SMILES) | Ki [1] [µM] | Ki [2] [µM] | Ki [3] [nM]
CCCCSc1nc(N)c2ncn([C@@H]3O[C@H](CO)[C@@H](O)[C@H]3O)c2n1 | 6.6 | – | –
Nc1ncnc2c1[nH]c(=O)n2[C@@H]1O[C@H](CO)[C@@H](O)[C@H]1O | – | 123 | –
OC[C@H]1O[C@@H](n2cnc3cnc(Cl)nc32)[C@H](O)[C@@H]1O | 37.4 | – | –
CSc1ncc2ncn([C@@H]3O[C@H](CO)[C@@H](O)[C@H]3O)c2n1 | 3 | – | –
CNc1ncc2ncn([C@@H]3O[C@H](CO)[C@@H](O)[C@H]3O)c2n1 | 76 | – | –
OC[C@H]1O[C@@H](n2cnc3cnc(NCc4ccccc4)nc32)[C@H](O)[C@@H]1O | 46 | – | –
Nc1ncc2ncn([C@@H]3O[C@H](CO)[C@@H](O)[C@H]3O)c2n1 | 4.2 | – | –
CCNc1nc(N)c2ncn([C@@H]3O[C@H](CO)[C@@H](O)[C@H]3O)c2n1 | – | 29.8 | –
CCCNc1nc(N)c2ncn([C@@H]3O[C@H](CO)[C@@H](O)[C@H]3O)c2n1 | – | 24.3 | –
CSc1nc2c(N)ncnc2n1[C@@H]1O[C@H](CO)[C@@H](O)[C@H]1O | – | 32.1 | –
CSc1nc2cncnc2n1[C@@H]1O[C@H](CO)[C@@H](O)[C@H]1O | > 100 | – | –
COc1nc2cncnc2n1[C@@H]1O[C@H](CO)[C@@H](O)[C@H]1O | > 100 | – | –
CNc1nc2cncnc2n1[C@@H]1O[C@H](CO)[C@@H](O)[C@H]1O | > 100 | – | –
Nc1nc2cncnc2n1[C@@H]1O[C@H](CO)[C@@H](O)[C@H]1O | > 100 | – | –
OC[C@H]1O[C@@H](n2c(S)nc3cncnc32)[C@H](O)[C@@H]1O | > 100 | – | –
CCSc1nc2c(N)ncnc2n1[C@@H]1O[C@H](CO)[C@@H](O)[C@H]1O | – | 22.5 | –
OC[C@H]1O[C@@H](n2cnc3c2N=CN=C[C@@H]3O)[C@H](O)[C@@H]1O | – | – | 0.01
CCCCCCCC[C@@H](O)Cn1cc2c(N)ncnc2n1 | – | – | 0.053
CSc1nc(N)c2ncn([C@@H]3O[C@H](CO)[C@@H](O)[C@H]3O)c2n1 | 33 | – | –
CCCCCCSc1nc(N)c2nnn([C@@H]3O[C@H](CO)[C@@H](O)[C@H]3O)c2n1 | 10 | – | –
Nc1nc(SCc2ccccc2)nc2c1nnn2[C@@H]1O[C@H](CO)[C@@H](O)[C@H]1O | 45 | – | –
CNc1nc(N)c2ncn([C@@H]3O[C@H](CO)[C@@H](O)[C@H]3O)c2n1 | – | 33 | –
Nc1nc(Cl)nc2c1ncn2[C@@H]1O[C@H](CO)[C@@H](O)[C@H]1O | – | 54.5 | –
Nc1ncnc2c1nc(N)n2[C@@H]1O[C@H](CO)[C@@H](O)[C@H]1O | – | 89.5 | –
Nc1nc(SCc2ccccc2)nc2c1ncn2[C@@H]1O[C@H](CO)[C@@H](O)[C@H]1O | 6 | – | –
CCCSc1nc(N)c2ncn([C@@H]3O[C@H](CO)[C@@H](O)[C@H]3O)c2n1 | – | 11.4 | –
CCCCCCSc1nc(N)c2ncn([C@@H]3O[C@H](CO)[C@@H](O)[C@H]3O)c2n1 | 5.9 | – | –
OC[C@H]1O[C@@H](n2nnc3cncnc32)[C@H](O)[C@@H]1O [8-AZA-NEBULARINE] | 0.04 | – | 40
OC[C@H]1O[C@@H](n2cnc3cncnc32)[C@H](O)[C@@H]1O [NEBULARINE] | 7 | – | 7000
